Experiment [1] in a line: DRUGMATRIX: Calcium Channel Type L, Phenylalkylamine radioligand binding (ligand: [3H] (-)-Desmethoxyverapamil (D-888)). It counts as cell membranes, Rattus norvegicus, Wistar, Brain, Membrane. The note with it: Not Active = under 50% inhibition at 10 µM.
For experiment [2], the target named is Melanocortin receptor 4 (Homo sapiens, UniProt P32245). In kind it is cell membranes, HEK293, Membrane. The following applies: hek293. Further: in other assays of this panel Not Active means under 50% inhibition at 10 µM.
Melanocortin receptor 4, sequence (P32245 whole entry): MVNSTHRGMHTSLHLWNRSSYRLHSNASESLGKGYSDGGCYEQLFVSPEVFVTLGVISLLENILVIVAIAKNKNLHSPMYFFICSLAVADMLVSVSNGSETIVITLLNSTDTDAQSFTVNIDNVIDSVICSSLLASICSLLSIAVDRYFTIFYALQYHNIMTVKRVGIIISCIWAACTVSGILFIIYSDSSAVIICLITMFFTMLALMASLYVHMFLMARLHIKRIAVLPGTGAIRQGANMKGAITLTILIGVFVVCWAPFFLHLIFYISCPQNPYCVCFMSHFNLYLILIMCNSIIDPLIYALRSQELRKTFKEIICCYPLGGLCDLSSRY
Experiment [3] can be described thus: DRUGMATRIX: Calcium Channel Type L, Benzothiazepine radioligand binding (ligand: [3H] Diltiazem). In kind it is cell membranes, Rattus norvegicus, Wistar, Brain, Membrane. The following applies: Not Active = under 50% inhibition at 10 µM.
For experiment [4], the target named is T1, Alpha-1B adrenergic receptor (Rattus norvegicus, UniProt P15823).
T1 sequence (P15823 whole entry): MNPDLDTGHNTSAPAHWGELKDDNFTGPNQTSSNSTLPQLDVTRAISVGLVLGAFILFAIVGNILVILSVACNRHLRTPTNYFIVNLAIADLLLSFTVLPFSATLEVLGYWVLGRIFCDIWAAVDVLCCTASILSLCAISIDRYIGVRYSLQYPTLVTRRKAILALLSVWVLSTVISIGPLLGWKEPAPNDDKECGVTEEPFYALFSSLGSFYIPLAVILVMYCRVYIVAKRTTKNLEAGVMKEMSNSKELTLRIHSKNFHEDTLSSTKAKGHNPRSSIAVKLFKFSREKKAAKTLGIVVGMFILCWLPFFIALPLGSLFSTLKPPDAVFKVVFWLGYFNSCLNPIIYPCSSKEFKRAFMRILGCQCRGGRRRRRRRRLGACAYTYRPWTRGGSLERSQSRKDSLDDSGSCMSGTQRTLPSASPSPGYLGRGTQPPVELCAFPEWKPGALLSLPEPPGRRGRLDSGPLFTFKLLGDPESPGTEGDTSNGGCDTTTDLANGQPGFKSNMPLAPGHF
Nature of the experiment: DRUGMATRIX: Alpha-1B adrenergic receptor radioligand binding (ligand: prazosin). In kind it is cell membranes, Wistar, Liver, Membrane. The note with it: Not Active = under 50% inhibition at 10 µM.

Experiment [5] concerns the target T2, Alpha-1A adrenergic receptor (Rattus norvegicus, UniProt P43140).
T2 sequence (P43140 whole entry): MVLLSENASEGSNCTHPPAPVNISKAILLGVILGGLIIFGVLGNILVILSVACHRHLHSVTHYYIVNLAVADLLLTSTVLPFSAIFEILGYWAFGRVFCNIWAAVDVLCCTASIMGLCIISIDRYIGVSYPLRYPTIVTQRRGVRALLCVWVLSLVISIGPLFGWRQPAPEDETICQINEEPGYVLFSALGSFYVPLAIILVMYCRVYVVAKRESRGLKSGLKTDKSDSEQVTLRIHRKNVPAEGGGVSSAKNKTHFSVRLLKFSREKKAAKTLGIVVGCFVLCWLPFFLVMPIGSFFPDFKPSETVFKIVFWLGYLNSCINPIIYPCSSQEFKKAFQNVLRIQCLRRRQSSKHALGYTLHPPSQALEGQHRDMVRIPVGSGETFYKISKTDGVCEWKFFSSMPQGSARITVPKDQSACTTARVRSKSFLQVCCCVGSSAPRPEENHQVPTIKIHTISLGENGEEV
In words: DRUGMATRIX: Alpha-1A adrenergic receptor radioligand binding (ligand: prazosin). In kind it is cell membranes, Wistar, Submaxillary gland, Membrane. The following applies: Not Active = under 50% inhibition at 10 µM.

On to `O=C(c1ccccc1C(F)(F)F)N1CCC(Cc2ccccc2)CC1`, for which the IC50 entry in experiment [1], in experiment [2], in experiment [3], in experiment [4] and in experiment [5] was “Not Active” each time. In addition, the Ki entry in experiment [1] and in experiment [3] was “Not Active” each time.

Take `O=C/C=C/c1ccccc1`: the IC50 result in experiment [1], in experiment [2], in experiment [3], in experiment [4] and in experiment [5] was “Not Active” each time. Also, the Ki entry in experiment [1] and in experiment [3] was “Not Active” in each case.

`Nc1ccc2c3c(cccc13)C(=O)NC2=O`: the IC50 entry in experiment [1], in experiment [2], in experiment [3], in experiment [4] and in experiment [5] was “Not Active” in each case. Further, the Ki entry in experiment [1] and in experiment [3] was “Not Active” each time.

Regarding `COc1ccc(C(=O)N2CCCC2=O)cc1`, the IC50 entry in experiment [1], in experiment [2], in experiment [3], in experiment [4] and in experiment [5] was “Not Active” in each case. Also, the Ki result in experiment [1] and in experiment [3] was “Not Active” each time.

`O=c1cnn([C@@H]2O[C@H](CO)[C@@H](O)[C@H]2O)c(=O)[nH]1` [6-AZAURIDINE]: the IC50 result in experiment [1], in experiment [2], in experiment [3], in experiment [4] and in experiment [5] was “Not Active” throughout. The Ki entry in experiment [1] and in experiment [3] was “Not Active” throughout.

With `CC[C@H](C)[C@H]1O[C@]2(C=C[C@@H]1C)C[C@@H]1C[C@@H](C/C=C(\C)[C@@H](O[C@H]3C[C@H](OC)[C@@H](O[C@H]4C[C@H](OC)[C@@H](O)[C@H](C)O4)[C@H](C)O3)[C@@H](C)/C=C/C=C3\CO[C@@H]4[C@H](O)C(C)=C[C@@H](C(=O)O1)[C@]34O)O2.CO[C@H]1C[C@H](O[C@H]2[C@H](C)O[C@@H](O[C@@H]3/C(C)=C/C[C@@H]4C[C@@H](C[C@]5(C=C[C@H](C)[C@@H](C(C)C)O5)O4)OC(=O)[C@@H]4C=C(C)[C@@H](O)[C@H]5OC/C(=C\C=C\[C@@H]3C)[C@]54O)C[C@@H]2OC)O[C@@H](C)[C@@H]1O` [ABAMECTIN], the IC50 entry in experiment [1], in experiment [2], in experiment [3], in experiment [4] and in experiment [5] was “Not Active” throughout. Besides, the Ki entry in experiment [1] and in experiment [3] was “Not Active” each time.

Take `NCCCC(O)(P(=O)(O)O)P(=O)(O)O` [ALENDRONIC ACID]: the IC50 entry in experiment [1], in experiment [2], in experiment [3], in experiment [4] and in experiment [5] was “Not Active” each time. Besides, the Ki entry in experiment [1] and in experiment [3] was “Not Active” each time.

Regarding `Cc1nnc2n1-c1ccc(Cl)cc1C(c1ccccc1)=NC2` [ALPRAZOLAM], the IC50 result in experiment [1], in experiment [2], in experiment [3], in experiment [4] and in experiment [5] was “Not Active” throughout. In addition, the Ki result in experiment [1] and in experiment [3] was “Not Active” each time.

Turning to `Cn1c(=O)c2[nH]cnc2n(C)c1=O.Cn1c(=O)c2[nH]cnc2n(C)c1=O.NCCN` [AMINOPHYLLINE], the concentration for half-maximal inhibition (IC50) entry in experiment [1], in experiment [2], in experiment [3], in experiment [4] and in experiment [5] was “Not Active” each time. Further, the Ki result in experiment [1] and in experiment [3] was “Not Active” in each case.

As for `CCC1(CCC(C)C)C(=O)NC(=O)NC1=O` [AMOBARBITAL], the IC50 entry in experiment [1], in experiment [2], in experiment [3], in experiment [4] and in experiment [5] was “Not Active” throughout. Further, the Ki entry in experiment [1] and in experiment [3] was “Not Active” in each case.

Regarding `CC1(C)S[C@@H]2[C@H](NC(=O)[C@H](N)c3ccccc3)C(=O)N2[C@H]1C(=O)O` [AMPICILLIN], the IC50 entry in experiment [1], in experiment [2], in experiment [3], in experiment [4] and in experiment [5] was “Not Active” in each case. Moreover, the Ki result in experiment [1] and in experiment [3] was “Not Active” throughout.

In the case of `COc1ccc(C2C(=O)c3ccccc3C2=O)cc1` [ANISINDIONE], the IC50 entry in experiment [1], in experiment [2], in experiment [3], in experiment [4] and in experiment [5] was “Not Active” in each case. Also, the Ki entry in experiment [1] and in experiment [3] was “Not Active” throughout.

In the case of `O=C1O[C@H]([C@@H](O)CO)C(O)=C1O` [ASCORBIC ACID], the IC50 result in experiment [1], in experiment [2], in experiment [3], in experiment [4] and in experiment [5] was “Not Active” throughout. Moreover, the inhibition constant (Ki) result in experiment [1] and in experiment [3] was “Not Active” each time.

With `CN1[C@@H]2CC[C@H]1C[C@@H](OC(=O)C(CO)c1ccccc1)C2` (stereo partly specified) [ATROPINE], the IC50 entry in experiment [2], in experiment [3], in experiment [4] and in experiment [5] was “Not Active” throughout. Also, the inhibition constant Ki entry in experiment [3] is given as “Not Active”.

For `CC(C(=O)O)c1ccc2oc(-c3ccc(Cl)cc3)nc2c1` (stereo unspecified) [BENOXAPROFEN], the IC50 result in experiment [1], in experiment [2], in experiment [3], in experiment [4] and in experiment [5] was “Not Active” each time. For the same molecule, the inhibitory constant (Ki) entry in experiment [1] and in experiment [3] was “Not Active” each time.

For the molecule `COc1ccc2cc3[n+](cc2c1OC)CCc1cc2c(cc1-3)OCO2.[Cl-]` [BERBERINE CHLORIDE], the IC50 entry in experiment [1], in experiment [2], in experiment [3], in experiment [4] and in experiment [5] was “Not Active” each time. For the same molecule, the inhibition constant (Ki) result in experiment [1] and in experiment [3] was “Not Active” each time.

As for `O=C(O)CCNC(=O)c1ccccc1` [BETAMIPRON], the IC50 entry in experiment [1], in experiment [2], in experiment [3], in experiment [4] and in experiment [5] was “Not Active” throughout. In addition, the Ki result in experiment [1] and in experiment [3] was “Not Active” in each case.

As to `CC(=O)Oc1ccc(C(c2ccc(OC(C)=O)cc2)c2ccccn2)cc1` [BISACODYL], the IC50 result in experiment [1], in experiment [2], in experiment [3], in experiment [4] and in experiment [5] was “Not Active” in each case. The Ki entry in experiment [1] and in experiment [3] was “Not Active” throughout.

As for `COc1cc2nc(N3CCN(C(=O)c4ccco4)CC3)nc(N)c2cc1OC` [PRAZOSIN], the IC50 entry in experiment [1], in experiment [2] and in experiment [3] was “Not Active” each time. Moreover, the Ki result in experiment [1] and in experiment [3] was “Not Active” throughout.

As for `CCCNCC(O)COc1ccccc1C(=O)CCc1ccccc1` (stereo unspecified) [PROPAFENONE], the IC50 in experiment [1] (read-out: IC50) was 1740 nM; in experiment [2], “Not Active”; in experiment [3] (read-out: IC50), 775 nM; in experiment [5] (read-out: IC50), 6.15 µM. The Ki in experiment [1] (read-out: Ki) was 1700 nM; in experiment [3] (read-out: Ki), 689 nM; in experiment [5] (read-out: Ki), 2490 nM.

Broadly, the IC50 is the midpoint of a concentration-inhibition curve. A word on the Ki: it is the dissociation constant of the complex between target and ligand, obtained from inhibition or displacement.

These data come from ChEMBL document CHEMBL1909046, “DrugMatrix in vitro pharmacology data”.
